From PubChem BioAssay (NCI)
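Assay format: 96-well plates, 48-hour exposure. TGI is the concentration that stops growth completely.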

Key:
Assay in all cases: NCI tumour cell line growth inhibition, 48 h
[1] = system: HCC-2998 colon
[2] = system: HOP-18 NSCLC
[3] = system: NCI-H522 lung
[4] = system: SR leukemia
[5] = system: OVCAR-5 ovarian
[6] = system: MOLT-4 leukemia
[7] = system: DLD-1 colon
[8] = system: SK-MEL-5 melanoma
[9] = system: UO-31 renal
[10] = system: SNB-19 CNS
[11] = system: OVCAR-4 ovarian
[12] = system: SNB-75 CNS
[13] = system: HOP-62 NSCLC
[14] = system: SF-295 CNS
[15] = system: IGROV1 ovarian
[16] = system: KM12 colon
[17] = system: UACC-62 melanoma
[18] = system: MALME-3M melanoma
[19] = system: KM20L2 colon
[20] = system: SF-268 CNS
[21] = system: UACC-257 melanoma
[22] = system: U251 CNS
[23] = system: SK-MEL-28 melanoma
[24] = system: HL-60(TB) leukemia
[25] = system: CCRF-CEM leukemia
[26] = system: COLO 205 colon
[27] = system: SNB-78 CNS
[28] = system: SN12C renal
[29] = system: SK-OV-3 ovarian
[30] = system: SF-539 CNS
[31] = system: TK-10 renal
[32] = system: M19-MEL melanoma
[33] = system: SW-620 colon
[34] = system: OVCAR-3 ovarian
[35] = system: RXF 393 renal
[36] = system: HOP-92 NSCLC
[37] = system: NCI-H460 lung
[38] = system: RPMI-8226 leukemia
[39] = system: NCI-H226 lung
[40] = system: ACHN renal
[41] = system: K-562 leukemia
[42] = system: HT29 colon
[43] = system: LXFL 529 NSCLC
[44] = system: CAKI-1 renal
[45] = system: OVCAR-8 ovarian
[46] = system: HCT-15 colon
[47] = system: 786-0 renal
[48] = system: A498 renal
[49] = system: NCI-H23 lung
[50] = system: SK-MEL-2 melanoma
[51] = system: M14 melanoma
[52] = system: A549 NSCLC
[53] = system: HCT-116 colon
[54] = system: LOX IMVI melanoma
[55] = system: EKVX NSCLC
[56] = system: DMS 114 small cell lung
[57] = system: DMS 273 small cell lung
[58] = system: MDA-MB-435
[59] = system: T-47D breast
[60] = system: MDA-N
[61] = system: PC-3 prostate
[62] = system: BT-549 breast
[63] = system: HS 578T breast
[64] = system: NCI/ADR-RES ovarian
[65] = system: DU-145 prostate
[66] = system: MDA-MB-231 breast
[67] = system: MCF7 breast
[68] = system: XF 498 CNS

Measured: TGI

O=C(/C=C/c1ccc(OCC(=O)N2CCN(c3ccccc3)CC2)cc1)c1ccccc1
> 25.6 µM: [25]
> 28.4 µM: [33]
> 66 µM: [19]
> 89.6 µM: [40]
> 79.4 µM: [31]
> 75 µM: [16]
98.9 µM: [55]
54.5 µM: [23]
> 57.9 µM: [47]
> 62 µM: [9]
> 82.9 µM: [10]
> 59.7 µM: [17]
> 89.4 µM: [20]
> 87 µM: [37]
> 67.5 µM: [45]
30.8 µM: [24]
> 58.2 µM: [18]
> 53 µM: [8]
10.7 µM: [54]
> 27.2 µM: [38]
> 43 µM: [41]
> 60.4 µM: [39] | [50]
> 56.8 µM: [3]
> 72.4 µM: [1]
85.6 µM: [49]
7.45 µM: [4]
> 94.2 µM: [43]
> 90 µM: [5]
51.6 µM: [35]
> 78.9 µM: [12]
> 25.2 µM: [6]
> 56.6 µM: [53]
> 82.7 µM: [2]
38 µM: [22]
46.8 µM: [30]
not listed: [56] | [57] | [58] | [59] | [60] | [61] | [62] | [63] | [64] | [65] | [66] | [67] | [68]
> 100 µM: all other assays above

COC(=O)CCSC(=O)Nc1ccccc1Cl
28.1 µM: [3]
not listed: [2] | [8] | [15] | [18] | [29] | [32] | [35] | [36] | [58] | [59] | [60] | [61] | [62] | [63] | [64] | [65] | [66] | [67] | [68]
> 100 µM: all other assays above

CC(=O)CC(=O)N1CCOC1=O
not listed: [2] | [3] | [7] | [19] | [27] | [32] | [43] | [56] | [57] | [68]
> 10 µM: all other assays above

CC(=O)OCc1cc2c(s1)C(=O)c1sccc1C2=O
0.0721 µM: [23]
0.299 µM: [57]
3.38 µM: [53]
0.36 µM: [55]
28.3 µM: [27]
0.563 µM: [61]
0.305 µM: [17]
0.276 µM: [2]
0.659 µM: [18]
0.0378 µM: [49]
0.368 µM: [52]
1.24 µM: [39]
1.68 µM: [36]
0.413 µM: [64]
0.882 µM: [59]
1 µM: [43]
0.0468 µM: [54]
> 100 µM: [41]
0.283 µM: [56]
< 0.0189 µM: [51]
0.12 µM: [12]
3.24 µM: [44]
2.79 µM: [15]
0.31 µM: [35]
0.246 µM: [40]
3.73 µM: [31]
0.391 µM: [9]
0.417 µM: [20]
0.104 µM: [65]
0.295 µM: [3]
0.322 µM: [37]
0.268 µM: [33]
0.303 µM: [46]
0.576 µM: [45]
0.692 µM: [66]
0.332 µM: [5]
0.285 µM: [30]
0.261 µM: [28]
3.23 µM: [48]
0.249 µM: [50]
1.84 µM: [47]
0.562 µM: [16]
3.03 µM: [26]
0.492 µM: [34]
0.317 µM: [10]
0.342 µM: [7]
5.49 µM: [19]
0.162 µM: [14]
0.422 µM: [63]
3.3 µM: [29]
0.706 µM: [22]
0.0322 µM: [58]
0.244 µM: [21]
3.22 µM: [1]
1.43 µM: [42]
0.0569 µM: [8]
0.416 µM: [67]
0.334 µM: [11]

CCc1n[nH]c(=O)n1-c1ccncc1
not listed: [2] | [7] | [17] | [19] | [27] | [29] | [32] | [43] | [50] | [56] | [57] | [68]
> 100 µM: all other assays above

CCOC(=O)Oc1ccc2[nH]c3c(C)cc(N)c(C)c3c2c1
not listed: [15] | [17] | [19] | [22] | [29] | [35] | [36] | [43] | [48] | [58] | [59] | [60] | [61] | [62] | [63] | [64] | [65] | [66] | [67]
> 100 µM: all other assays above

Cc1ccc(C(=O)C2CC3(CCC2(O)c2ccc(C)cc2)CC(=O)Nc2ccccc2C3=O)cc1 (configuration not stated)
93.5 µM: [12]
97.6 µM: [8]
not listed: [2] | [3] | [7] | [11] | [16] | [19] | [27] | [32] | [38] | [40] | [41] | [43] | [47] | [56] | [57] | [68]
> 100 µM: all other assays above
